# Tests used:
# Experiment in all cases: MIC, broth microdilution in Meuller-Hinton broth (NCCLS)
# 3798 S. aureus (GISA) = assay type: cell-based, Staphylococus aureus; settings: glycopeptides-intermediate clinical isolate
# Method: (§1) Antibacterial activity in vitro was investigated by broth microdilution method in Meuller-Hinton broth as recommended by NCCLS. All strains tested were clinical isolates either sensitive or resistant to natural glycopeptides. Results are reported in the tables as MIC (minimal inhibitory concentration) in μg/ml.
# (§2) The glycopeptides were tested against a variety of strains, indicated below, including Staphylococus epidermidis, Staphylococus haemolyticus, glycopeptides-intermediate Staphylococus aureus (GISA), glocopeptide-sensitive Enterococcus faecalis (GSE), and glocopeptide-resistant Enterococcus faecalis (GRE). Results are shown in the table as minimum inhibitory concentration (MIC) in units of μg/ml: […]
# 3797 S. aureus (GISA) = assay type: cell-based, Staphylococus aureus; settings: glycopeptides-intermediate clinical isolate
# Method: as §1, §2
# 602 S. haemolyticus = assay type: cell-based, Staphylococus haemolyticus; settings: clinical isolate
# Method: as §1, §2
# 533 S. epidermidis = assay type: cell-based, Staphylococus epidermidis; settings: clinical isolate
# Method: as §1, §2
# 560 E. faecalis (GRE) = assay type: cell-based, Enterococcus faecalis; settings: glycopeptide-resistant clinical isolate
# Method: as §1, §2
# 559 E. faecalis (GSE) = assay type: cell-based, Enterococcus faecalis; settings: glycopeptide-sensitive clinical isolate
# Method: as §1, §2
# 569 E. faecium (GRE) = assay type: cell-based; settings: glycopeptide-resistant clinical isolate
# Method: as §1, §2
# 568 E. faecium (GSE) = assay type: cell-based; settings: glycopeptide-sensitive clinical isolate
# Method: as §1, §2
SMILES,MIC 3798 S. aureus (GISA) (3798 S. aureus (GISA)) [mg/L],MIC 3797 S. aureus (GISA) (3797 S. aureus (GISA)) [mg/L],MIC 602 S. haemolyticus (602 S. haemolyticus) [mg/L],MIC 533 S. epidermidis (533 S. epidermidis) [mg/L],MIC 560 E. faecalis (GRE) (560 E. faecalis (GRE)) [mg/L],MIC 559 E. faecalis (GSE) (559 E. faecalis (GSE)) [mg/L],MIC 569 E. faecium (GRE) (569 E. faecium (GRE)) [mg/L],MIC 568 E. faecium (GSE) (568 E. faecium (GSE)) [mg/L]
CCCCCCCCOc1ccc(CNC(CCCN)C(=O)NC2(C)CC(OC3C(Oc4c5cc6cc4Oc4ccc(cc4Cl)C(O)C4NC(=O)C(NC(=O)C6NC(=O)C(CC(N)=O)NC(=O)C(NC(=O)C(CC(C)C)NC)C(O)c6ccc(c(Cl)c6)O5)c5ccc(O)c(c5)-c5c(O)cc(O)cc5C(C(=O)O)NC4=O)OC(CO)C(O)C3O)OC(C)C2O)cc1 (stereo not drawn) [Compound 241],2,2,1,0.5,16,1,16,1
CNC(CC(C)C)C(=O)NC1C(=O)NC(CC(N)=O)C(=O)NC2C(=O)NC3C(=O)NC(C(=O)NC(C(=O)O)c4cc(O)cc(O)c4-c4cc3ccc4O)C(OC3CC(C)(N)C(O)C(C)O3)c3ccc(cc3)Oc3cc2cc(c3OC2OC(CO)C(O)C(O)C2OC2CC(C)(NC(=O)CNCc3cn(Cc4ccccc4)c4ccccc34)C(O)C(C)O2)Oc2ccc(cc2Cl)C1O (stereo not drawn) [Compound 225],4,4,2,1,64,2,16,4
CNC(CC(C)C)C(=O)NC1C(=O)NC(CC(N)=O)C(=O)NC2C(=O)NC3C(=O)NC(C(=O)NC(C(=O)O)c4cc(O)cc(O)c4-c4cc3ccc4O)C(OC3CC(C)(N)C(O)C(C)O3)c3ccc(cc3)Oc3cc2cc(c3OC2OC(CO)C(O)C(O)C2OC2CC(C)(NC(=O)CNCc3cc4ccccc4c4ccccc34)C(O)C(C)O2)Oc2ccc(cc2Cl)C1O (stereo not drawn) [Compound 287],16,16,2,2,>64,2,>64,2
CNC(CC(C)C)C(=O)NC1C(=O)NC(CC(N)=O)C(=O)NC2C(=O)NC3C(=O)NC(C(=O)NC(C(=O)NC(C)C45CC6CC(CC(C6)C4)C5)c4cc(O)cc(O)c4-c4cc3ccc4O)C(OC3CC(C)(N)C(O)C(C)O3)c3ccc(cc3)Oc3cc2cc(c3OC2OC(CO)C(O)C(O)C2OC2CC(C)(N)C(O)C(C)O2)Oc2ccc(cc2Cl)C1O (stereo not drawn) [Compound 262],2,4,1,0.5,16,1,16,0.5
CCCCc1ccc(CNCC(=O)NC2(C)CC(OC3C(Oc4c5cc6cc4Oc4ccc(cc4Cl)C(O)C(NC(=O)C(CC(C)C)NC)C(=O)NC(CC(N)=O)C(=O)NC6C(=O)NC4C(=O)NC(C(=O)NC(C(=O)NC)c6cc(O)cc(O)c6-c6cc4ccc6O)C(OC4CC(C)(N)C(O)C(C)O4)c4ccc(cc4)O5)OC(CO)C(O)C3O)OC(C)C2O)cc1 (stereo not drawn) [Compound 77],2,2,2,1,8,2,8,2
CCCCCCCCCC(=O)NCC(=O)NC1(C)CC(OC2C(Oc3c4cc5cc3Oc3ccc(cc3Cl)C(O)C(NC(=O)C(CC(C)C)NC)C(=O)NC(CC(N)=O)C(=O)NC5C(=O)NC3C(=O)NC(C(=O)NC(C(=O)O)c5cc(O)cc(O)c5-c5cc3ccc5O)C(OC3CC(C)(N)C(O)C(C)O3)c3ccc(cc3)O4)OC(CO)C(O)C2O)OC(C)C1O (stereo not drawn) [Compound 186],16,16,2,2,>64,2,>64,1

# Reference: patent publication US7632918B2, “Semi-synthetic glycopeptides with antibiotic activity” (Novartis Vaccines and Diagnostics, Inc., priority 2005, dated 2009)
